# According to ChEMBL document CHEMBL4196079, “Molecular interaction of novel benzothiazolyl triazolium analogues with calf thymus DNA and HSA-their biological investigation as potent antimicrobial agents” (Eur J Med Chem, 2018):
# Tested on: Staphylococcus aureus
# Assay: Antibacterial activity against methicillin-resistant Staphylococcus aureus N315 after 24 hrs by NCCLS micro broth dilution method
# Assay type: functional
# Conditions: N315, 24 h
row,SMILES,MIC [µg/mL]
1,CCOc1ccc2c(c1)sc1nc(-c3ccccc3)c(COCc3cn(Cc4cccc(F)c4)nn3)n12,16
2,CCCCCCn1cc(COCc2c(-c3ccccc3)nc3sc4ccccc4n23)nn1,16

# Tested on: Staphylococcus aureus
# Assay: Antibacterial activity against Staphylococcus aureus ATCC 25923 after 24 hrs by NCCLS micro broth dilution method
# Assay type: functional
# Conditions: ATCC 25923, 24 h
row,SMILES,MIC [µg/mL]
1,CCOc1ccc2c(c1)sc1nc(-c3ccccc3)c(COCc3cn(Cc4cccc(F)c4)nn3)n12,128
2,CCCCCCn1cc(COCc2c(-c3ccccc3)nc3sc4ccccc4n23)nn1,8

# Tested on: Bacillus subtilis
# Assay: Antibacterial activity against Bacillus subtilis ATCC 21216 after 24 hrs by NCCLS micro broth dilution method
# Assay type: functional
# Conditions: ATCC 21216, 24 h
row,SMILES,MIC [µg/mL]
1,CCOc1ccc2c(c1)sc1nc(-c3ccccc3)c(COCc3cn(Cc4cccc(F)c4)nn3)n12,128
2,CCCCCCn1cc(COCc2c(-c3ccccc3)nc3sc4ccccc4n23)nn1,16

# Tested on: Micrococcus luteus
# Assay: Antibacterial activity against Micrococcus luteus ATCC 4698 after 24 hrs by micro broth dilution method
# Assay type: functional
# Conditions: ATCC 4698, 24 h
row,SMILES,MIC [µg/mL]
1,CCOc1ccc2c(c1)sc1nc(-c3ccccc3)c(COCc3cn(Cc4cccc(F)c4)nn3)n12,128
2,CCCCCCn1cc(COCc2c(-c3ccccc3)nc3sc4ccccc4n23)nn1,2

# Tested on: Escherichia coli
# Assay: Antibacterial activity against Escherichia coli DH52 after 24 hrs by NCCLS micro broth dilution method
# Assay type: functional
# Conditions: DH52, 24 h
row,SMILES,MIC [µg/mL]
1,CCOc1ccc2c(c1)sc1nc(-c3ccccc3)c(COCc3cn(Cc4cccc(F)c4)nn3)n12,16
2,CCCCCCn1cc(COCc2c(-c3ccccc3)nc3sc4ccccc4n23)nn1,32

# Tested on: Escherichia coli
# Assay: Antibacterial activity against Escherichia coli JM109 after 24 hrs by NCCLS micro broth dilution method
# Assay type: functional
# Conditions: JM109, 24 h
row,SMILES,MIC [µg/mL]
1,CCOc1ccc2c(c1)sc1nc(-c3ccccc3)c(COCc3cn(Cc4cccc(F)c4)nn3)n12,128
2,CCCCCCn1cc(COCc2c(-c3ccccc3)nc3sc4ccccc4n23)nn1,32

# Tested on: Shigella dysenteriae
# Assay: Antibacterial activity against Shigella dysenteriae after 24 hrs by NCCLS micro broth dilution method
# Assay type: functional
# Conditions: not given
row,SMILES,MIC [µg/mL]
1,CCOc1ccc2c(c1)sc1nc(-c3ccccc3)c(COCc3cn(Cc4cccc(F)c4)nn3)n12,128
2,CCCCCCn1cc(COCc2c(-c3ccccc3)nc3sc4ccccc4n23)nn1,2

# Tested on: Pseudomonas aeruginosa
# Assay: Antibacterial activity against Pseudomonas aeruginosa ATCC 27853 after 24 hrs by NCCLS micro broth dilution method
# Assay type: functional
# Conditions: ATCC 27853, 24 h
row,SMILES,MIC [µg/mL]
1,CCOc1ccc2c(c1)sc1nc(-c3ccccc3)c(COCc3cn(Cc4cccc(F)c4)nn3)n12,64
2,CCCCCCn1cc(COCc2c(-c3ccccc3)nc3sc4ccccc4n23)nn1,16

# Tested on: Salmonella typhi
# Assay: Antibacterial activity against Salmonella typhi after 24 hrs by NCCLS micro broth dilution method
# Assay type: functional, Salmonella enterica subsp. enterica serovar Typhi
# Conditions: Salmonella enterica
row,SMILES,MIC [µg/mL]
1,CCOc1ccc2c(c1)sc1nc(-c3ccccc3)c(COCc3cn(Cc4cccc(F)c4)nn3)n12,32
2,CCCCCCn1cc(COCc2c(-c3ccccc3)nc3sc4ccccc4n23)nn1,16

# Tested on: Bacillus
# Assay: Antibacterial activity against Bacillus proteus ATCC 13315 after 24 hrs by NCCLS micro broth dilution method
# Assay type: functional
# Conditions: ATCC 13315, 24 h
row,SMILES,MIC [µg/mL]
1,CCOc1ccc2c(c1)sc1nc(-c3ccccc3)c(COCc3cn(Cc4cccc(F)c4)nn3)n12,64
2,CCCCCCn1cc(COCc2c(-c3ccccc3)nc3sc4ccccc4n23)nn1,8

# Tested on: Candida albicans
# Assay: Antifungal activity against Candida albicans ATCC 76615 after 24 hrs by NCCLS micro broth dilution method
# Assay type: functional
# Conditions: ATCC 76615, 24 h
row,SMILES,MIC [µg/mL]
1,CCOc1ccc2c(c1)sc1nc(-c3ccccc3)c(COCc3cn(Cc4cccc(F)c4)nn3)n12,8
2,CCCCCCn1cc(COCc2c(-c3ccccc3)nc3sc4ccccc4n23)nn1,8

# Tested on: Pichia norvegensis
# Assay: Antifungal activity against Candida mycoderma after 24 hrs by NCCLS micro broth dilution method
# Assay type: functional
# Conditions: not given
row,SMILES,MIC [µg/mL]
1,CCOc1ccc2c(c1)sc1nc(-c3ccccc3)c(COCc3cn(Cc4cccc(F)c4)nn3)n12,16
2,CCCCCCn1cc(COCc2c(-c3ccccc3)nc3sc4ccccc4n23)nn1,32

# Tested on: Cyberlindnera jadinii
# Assay: Antifungal activity against Candida utilis after 24 hrs by NCCLS micro broth dilution method
# Assay type: functional
# Conditions: Williopsis jadinii
row,SMILES,MIC [µg/mL]
1,CCOc1ccc2c(c1)sc1nc(-c3ccccc3)c(COCc3cn(Cc4cccc(F)c4)nn3)n12,16
2,CCCCCCn1cc(COCc2c(-c3ccccc3)nc3sc4ccccc4n23)nn1,4

# Tested on: Aspergillus flavus
# Assay: Antifungal activity against Aspergillus flavus after 24 hrs by NCCLS micro broth dilution method
# Assay type: functional
# Conditions: not given
row,SMILES,MIC [µg/mL]
1,CCOc1ccc2c(c1)sc1nc(-c3ccccc3)c(COCc3cn(Cc4cccc(F)c4)nn3)n12,64
2,CCCCCCn1cc(COCc2c(-c3ccccc3)nc3sc4ccccc4n23)nn1,32

# Tested on: Saccharomyces cerevisiae
# Assay: Antifungal activity against Saccharomyces cerevisiae after 24 hrs by NCCLS micro broth dilution method
# Assay type: functional
# Conditions: not given
row,SMILES,MIC [µg/mL]
1,CCOc1ccc2c(c1)sc1nc(-c3ccccc3)c(COCc3cn(Cc4cccc(F)c4)nn3)n12,32
2,CCCCCCn1cc(COCc2c(-c3ccccc3)nc3sc4ccccc4n23)nn1,8

# Tested on: Saccharomyces cerevisiae
# Assay: Potency index, ratio of fluconazole MIC to compound MIC for antifungal activity against Saccharomyces cerevisiae
# Assay type: functional
# Conditions: not given
row,SMILES,Ratio
1,CCCCCCn1cc(COCc2c(-c3ccccc3)nc3sc4ccccc4n23)nn1,2

# Tested on: MDA-MB-231
# Assay: Cytotoxicity against human MDA-MB-231 cells after 24 hrs by MTT assay
# Assay type: cell-based
# Conditions: MDA-MB-231, 24 h
row,SMILES,IC50 [µg/mL]
1,CCOc1ccc2c(c1)sc1nc(-c3ccccc3)c(COCc3cn(Cc4cccc(F)c4)nn3)n12,< 100
